Measurements from US7091197B2, “Beta-lactamase inhibitor prodrug” (Pfizer Inc., priority 2002, dated 2006).
pIC50: −log10 of the molar value. Converted amounts (≈) assume the structure as drawn. Marks after values point to notes of the source that are not given here.

What was measured:
[1] = tested on: 21 penicillin-resistant strains of S. pneumoniae; test: microbe, parasite or virus in culture; format: cell-based; settings: Streptococcus pneumoniae; some S. pneumoniae clinical isolates; read-out: MICs of strains with high-level resistance
[2] = tested on: Haemophilus influenzae (54A1218); test: Gerbil otitis media model, H. influenzae; format: in vivo
[3] = tested on: Haemophilus influenzae (54A1218); test: Murine systemic infection model, H. influenzae; format: in vivo; settings: 96 h, oral, single agent, H. influenzae 54A1218, survival day 4
[4] = tested on: Moraxella catarrhalis (87A1115); test: Murine systemic infection model, M. catarrhalis; format: in vivo; settings: 96 h, oral, single agent, M. catarrhalis 87A1115, survival day 4
[5] = tested on: Staphylococcus aureus (01A0400); test: Murine systemic infection model, S. aureus; format: in vivo; settings: 96 h, oral, single agent, S. aureus 01A0400, survival day 4
[6] = tested on: Klebsiella pneumonaie (53A0031); test: Murine systemic infection model, K. pneumoniae; format: in vivo; settings: 96 h, oral, single agent, K. pneumoniae 53A0031, survival day 4
[7] = tested on: Eschericia coli (51A0257); test: Murine systemic infection model, E. coli; format: in vivo; settings: Escherichia coli, 96 h, oral, single agent, E. coli 51A0257, survival day 4
[8] = tested on: Streptococcus pneumoniae (02J1095); test: Mouse pneumonia model, S. pneumoniae 02J1095; format: in vivo; settings: 240 h, oral, single agent, survival day 10
[9] = tested on: Streptococcus pneumoniae (02J1016); test: Mouse pneumonia model, S. pneumoniae 02J1016; format: in vivo; settings: 240 h, oral, single agent, survival day 10
[10] = Chemical (pH) stability in solution; format: physicochemical
Description: Buffers were appropriately formulated to achieve the desired pH of each incubation. […] The temperature of the incubation was regulated with a 96-well heat block. Incubations were performed at 25° C. and 37° C. […] An apparent first-order half-life could then be estimated as ln 2/kd.

[11] = target: T1, BRO-2 β-lactamase (M. catarrhalis 87A1178 ATCC43617) (Moraxella catarrhalis, UniProt Q59514); test: β-lactamase inhibition in cell extracts, BRO-2; format: biochemical
T1 sequence (Q59514 1-313 D293G): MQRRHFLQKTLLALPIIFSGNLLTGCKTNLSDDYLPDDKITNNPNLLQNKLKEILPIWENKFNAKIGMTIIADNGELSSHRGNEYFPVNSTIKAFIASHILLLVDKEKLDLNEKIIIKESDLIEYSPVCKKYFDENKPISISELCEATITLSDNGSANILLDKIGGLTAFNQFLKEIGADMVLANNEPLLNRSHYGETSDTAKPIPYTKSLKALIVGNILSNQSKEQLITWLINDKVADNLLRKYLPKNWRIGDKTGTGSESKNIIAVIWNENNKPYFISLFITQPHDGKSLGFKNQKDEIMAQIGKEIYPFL

[12] = clavulanate in the Augmentin suspension; room temperature, 10 days; cited from earlier work
[13] = in vivo, cited from earlier work
BRO-1 and BRO-2 enzymes = BRO-1 and BRO-2 enzymes (Moraxella catarrhalis, UniProt Q59514); test: β-lactamases from 30 recent clinical isolates of M. catarrhalis; format: biochemical; settings: BRO-1 and BRO-2 enzymes from 30 recent clinical isolates of M. catarrhalis
Chain of BRO-1 and BRO-2 enzymes (Q59514 whole entry): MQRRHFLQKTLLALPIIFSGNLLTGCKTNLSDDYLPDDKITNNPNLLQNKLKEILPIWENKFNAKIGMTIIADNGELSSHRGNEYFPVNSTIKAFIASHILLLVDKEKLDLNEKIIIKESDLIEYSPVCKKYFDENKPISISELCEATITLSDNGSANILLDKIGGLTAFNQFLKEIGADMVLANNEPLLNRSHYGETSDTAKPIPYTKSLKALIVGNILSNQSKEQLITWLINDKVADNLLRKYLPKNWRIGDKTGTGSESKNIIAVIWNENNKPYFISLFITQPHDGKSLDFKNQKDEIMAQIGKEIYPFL

[14] = Prodrug 3 suspension stability (0.5% methylcellulose); format: physicochemical; settings: for Potency (percent) in suspension: 1.51 mg/ml, un-buffered 0.5% methylcellulose, 25° C.
in vitro = settings: plasma
Description: The incubation consisted of 990 μl of plasma preincubated for 5 minutes at 37° C. in a 96-well heat block. The incubation was initiated with the addition of 10 μl of a 10 mM stock of compound in 100% methanol. Serial aliquots (100 μl) were removed and transferred to 200 μl of 75/25 acetonitrile/3% perchloric acid at 0, 1, 2, 5, 10, 20, 30, and 60 minutes. The samples were centrifuged, the supernatants transferred to injection vials, and 20 μl was injected onto the HPLC in-line with a LC/MS single quadropole mass spectrometer. The LC/MS system was run in the negative ion mode. […] The peak response at each time point was expressed as a percentage of that obtained at time=0. A degradation rate constant (kd) was obtained by regression of these percentages from time=0 minutes to […]. An apparent first-order half-life was then be estimated as ln 2/kd. These determinations were completed in duplicate and the average was reported as shown below.

[15] = target: E. coli TEM-1 beta-lactamase (Escherichia coli, UniProt P62593); test: Beta-lactamase inhibitory activity at intestinal pH values; format: biochemical
Chain of E. coli TEM-1 beta-lactamase (P62593 24-286 limits assumed): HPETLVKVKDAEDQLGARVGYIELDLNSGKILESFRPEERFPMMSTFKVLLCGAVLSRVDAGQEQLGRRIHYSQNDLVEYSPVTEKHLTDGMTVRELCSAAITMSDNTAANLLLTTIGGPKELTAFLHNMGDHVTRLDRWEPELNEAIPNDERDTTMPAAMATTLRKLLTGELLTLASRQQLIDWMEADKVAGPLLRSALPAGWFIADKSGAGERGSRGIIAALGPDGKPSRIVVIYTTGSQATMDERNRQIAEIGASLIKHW

[16] = Portal vein studies in rats; format: in vivo; settings: portal vein cannulated rats; oral 100 mg/kg; 5, 15 and 30 minutes post dose; not detected, assay LLOQ
Description: Portal Vein Studies in Rats: Systemic exposure of Prodrug 3 was also assessed in portal vein cannulated rats following oral administration of the prodrug at a dose of 100 mg/kg. Whole blood aliquots were stabilized in ice cold acid immediately upon sampling at 5, 15 and 30 minutes post dose. No levels of Prodrug 3 were detected in any of the samples (assay LLOQ of 100 ng/ml).

[17] = Hepatic extraction, rat hepatocytes; format: in vitro ADME
Source text: (§1) L. and A. Barve, 1998. Linear correlation of the fraction of oral dose absorbed of 64 drugs between humans and rats. Pharm. Res. 15:1792–1795.). Based upon this correlation, the rat was used to predict human absorption. […] Thus, oral bioavailability assessments in rats should correlate well with the fraction absorbed in humans.

[18] = Hepatic extraction, human hepatocytes; format: in vitro ADME
Source text: as §1

[19] = buffer, pH 1.2, Half-life (Hours), solution stability
[20] = buffer, pH 2.5, Half-life (Hours), solution stability
[21] = buffer, pH 4, Half-life (Hours), solution stability
[22] = buffer, pH 5, Half-life (Hours), solution stability

In the case of `CC1(C)S[C@@H]2[C@H](NC(=O)[C@H](N)c3ccc(O)cc3)C(=O)N2[C@H]1C(=O)O` [Amoxicillin, amoxicillin], the MIC [1] was 4 to 8 µg/mL (≈ 10.9 to 21.9 µM), the “outcome as a single agent” value ([2]; gerbil otitis media model) was “failed” and the ED50 [3] was greater than 100 mg/kg. The ED50 [4] was greater than 100 mg/kg, the ED50 [5] was greater than 100 mg/kg and the ED50 [6] was greater than 200 mg/kg. The ED50 [7] was greater than 200 mg/kg, the ED50 [8] was 25 mg/kg and the ED50 [9] was 3.3 mg/kg.
For `O=C(O)[C@H]1/C(=C/CO)O[C@@H]2CC(=O)N21` [Clavulanate, lithium clavulanate], the “Half-life (Hours), solution stability” value ([10]; buffer, 100 μM, pH 2.5) was 1.2 h, the “Half-life (Hours), solution stability” value ([10]; buffer, 100 μM, pH 4) was greater than 24 h and the “Half-life (Hours), solution stability” value ([10]; buffer, 100 μM, pH 5) was greater than 24 h. For the same molecule, the “Half-life (Hours), solution stability” value ([10]; buffer, 100 μM, pH 6.5) was greater than 24 h, the “Half-life (Hours), solution stability” value ([10]; buffer, 100 μM, pH 7.4) was greater than 24 h and the half-life at 100 μM [10, 19] was 0.6 h. For the same molecule, the half-life at 100 μM [10, 20] was 0.9 h, the half-life at 100 μM [10, 21] was greater than 24 h and the half-life at 100 μM [10, 22] was greater than 24 h. For the same molecule, the half-life at 100 μM ([10]; buffer, pH 6.5, Half-life (Hours), solution stability) was greater than 24 h, the half-life at 100 μM ([10]; buffer, pH 7.4, Half-life (Hours), solution stability) was greater than 24 h and the pIC50 [11] was 6.96. For the same molecule, the “potency retained in suspension” value [12] was 40%, the “fraction that remains unabsorbed from the intestine” value ([13]; human) was 40% and the “fraction absorbed into circulation” value [13] was 60%.
Work on `CC1(C)[C@H](C(=O)[O-])N2C(=O)[C@@H](CO)[C@H]2S1(=O)=O.[Na+]` [Na-HMPAS, 4-Thia-1-azabicyclo[3,2,0]heptane-2-carboxylic acid, 6-(hydroxymethyl)-3,3-dimethyl-7-oxo-, 4,4-dioxide, monosodium salt, (2S, 5R, 6R)] yielded a half-life at 100 μM ([10]; pH buffer, pH 1.2, pH 1.2, 25° C., 100 μM, read-out: Half-life (Hours), solution stability) greater than 24 h, a half-life at 100 μM ([10]; pH buffer, pH 1.2, pH 1.2, 37° C., 100 μM, read-out: Half-life (Hours), solution stability) greater than 24 h and a half-life at 100 μM ([10]; pH buffer, pH 2.5, pH 2.5, 25° C., 100 μM, read-out: Half-life (Hours), solution stability) greater than 24 h. It also gave a half-life at 100 μM ([10]; pH buffer, pH 2.5, pH 2.5, 37° C., 100 μM, read-out: Half-life (Hours), solution stability) greater than 24 h, a half-life at 100 μM ([10]; pH buffer, pH 4, pH 4.0, 25° C., 100 μM, read-out: Half-life (Hours), solution stability) greater than 24 h and a half-life at 100 μM ([10]; pH buffer, pH 4, pH 4.0, 37° C., 100 μM, read-out: Half-life (Hours), solution stability) greater than 24 h. The half-life at 100 μM ([10]; pH buffer, pH 5, pH 5.0, 25° C., 100 μM, read-out: Half-life (Hours), solution stability) was greater than 24 h, the half-life at 100 μM ([10]; pH buffer, pH 5, pH 5.0, 37° C., 100 μM, read-out: Half-life (Hours), solution stability) was greater than 24 h and the half-life at 100 μM ([10]; pH buffer, pH 6.5, pH 6.5, 25° C., 100 μM, read-out: Half-life (Hours), solution stability) was greater than 24 h. The half-life at 100 μM ([10]; pH buffer, pH 6.5, pH 6.5, 37° C., 100 μM, read-out: Half-life (Hours), solution stability) was greater than 24 h, the half-life at 100 μM ([10]; pH buffer, pH 7.4, pH 7.4, 25° C., 100 μM, read-out: Half-life (Hours), solution stability) was greater than 24 h and the half-life at 100 μM ([10]; pH buffer, pH 7.4, pH 7.4, 37° C., 100 μM, read-out: Half-life (Hours), solution stability) was greater than 24 h. The pIC50 (BRO-1 and BRO-2 enzymes) was 6.72.
With `C[C@H](OC(=O)c1ccccc1)OC(=O)[C@@H]1N2C(=O)[C@@H](CO)[C@H]2S(=O)(=O)C1(C)C` [Prodrug 3, 4-Thia-1-azabicyclo[3.2.0]heptane-2-carboxylic acid, 6-(hydroxymethyl)-3,3-dimethyl-7-oxo-, (1R)-1-(benzoyloxy)ethyl ester, 4,4-dioxide (2S, 5R, 6R)] the “Half-life (Hours), solution stability” value ([10]; buffer, 100 μM, pH 1.2) was greater than 24 h, the “Half-life (Hours), solution stability” value ([10]; buffer, 100 μM, pH 2.5) was greater than 24 h and the “Half-life (Hours), solution stability” value ([10]; buffer, 100 μM, pH 4) was greater than 24 h. The “Half-life (Hours), solution stability” value ([10]; buffer, 100 μM, pH 5) was greater than 24 h, the half-life at 100 μM [10, 19] was greater than 24 h and the half-life at 100 μM [10, 20] was greater than 24 h. The half-life at 100 μM [10, 21] was greater than 24 h, the half-life at 100 μM [10, 22] was greater than 24 h and the half-life at 100 μM ([10]; buffer, pH 7, half-life of conversion of the prodrug to active inhibitor) was 0.55 h. The half-life at 100 μM ([10]; solution half-life) was 0.5 h, the “Potency (percent) in suspension” value ([14]; Day 3) was 103% and the “Potency (percent) in suspension” value ([14]; Day 5) was 98%. For the same molecule, the “Potency (percent) in suspension” value ([14]; Day 7) was 104%, the “Potency (percent) in suspension” value ([14]; Day 10, pH ~6.8 initially, 4.7 by day 10) was 91*** percent and the “potency maintained in suspension” value ([14]; storage at room temperature for 10 days) was “greater than 90%”. For the same molecule, the half-life at 100 μM (in vitro; dog) was 2.8 min, the half-life at 100 μM (in vitro; human) was less than 2 min and the half-life at 100 μM (in vitro; monkey) was 3.6 min. For the same molecule, the half-life at 100 μM (in vitro; mouse) was 2.8 min, the half-life at 100 μM (in vitro; rat) was less than 2 min and the pIC50 ([15]; pH 6.0) was less than 4.00. The pIC50 ([15]; pH 7.0) was 5.66, the “levels of Prodrug 3 in portal vein blood” value [16] was less than 100 ng/mL and the ED50 ([2]; Haemophilus influenzae, 96 h, oral, single agent, gerbil otitis media, H. influenzae 54A1218, bacterial clearance day 4) was greater than 25 mg/kg. For the same molecule, the ED50 [3] was greater than 25 mg/kg, the ED50 [4] was greater than 100 mg/kg and the ED50 [5] was greater than 12.5 mg/kg. For the same molecule, the ED50 [6] was greater than 25 mg/kg, the ED50 [7] was greater than 100 mg/kg and the ED50 [8] was greater than 25 mg/kg. The ED50 [9] was greater than 25 mg/kg.
With `CC1(C)[C@H](C(=O)O)N2C(=O)[C@@H](CO)[C@H]2S1(=O)=O` [Prodrug 6-β-HMPAS, 6-β-hydroxymethylpenicillanic acid sulfone] the hepatic extraction [17] was “minimal hepatic extraction”, the hepatic extraction [18] was “minimal hepatic extraction” and the pIC50 [11] was 6.49.
